# Measured values published in patent publication US8518459B2, “Composition for regulating lipid metabolism” (Actigenomics S.A., priority 2009, dated 2013).
# How the values were obtained:
# [1] = system: C57B16J mice submitted to diet rich in cholesterol; assay: Adiposity index and distribution of white adipose tissue after 12 weeks; format: in vivo, C57bl6J male mice; settings: after 12 weeks of treatment
# Protocol: (§1) […] C57bl6J male mice (8 weeks of age) from breeding company Janvier (Le Genest Saint Isle, France) are distributed in cages and housed in a room with controlled humidity and temperature (23±0.5° C.). They are subject to a 12/12-hr light cycle (light at 7 am). During one week of adaptation, the animals have free access to drinking water and food, and are then randomized into 5 groups of 12 animals using as selection criteria weight, triglyceridemia and cholesterolemia.
# (§2) • a control group receiving a diet enriched in cholesterol (see composition in Table 1) • a group treated with the reference, atorvastatin, 10 mg/kg/day, • a group receiving a 125 ng/kg/day concentration of Lipistase, • a group receiving PS (a mixture of phytosterols and stanols) to the total dose of 1.2 g/kg/day, • a group receiving a combination of Lipistase and phytosterols.
# (§3) All products (reference, study products and combination of products) are administered in the diet enriched in cholesterol, and administration to animals lasts three months. Lipistase, being in the form of a soybean oil suspension, all diets receive the same volume (1.8% w/w) of neutral soybean oil than that required to provide the desired amount of Lipistase.
# Animals are sacrificed by cervical dislocation; liver, muscles (gastrocnemius and soleus), heart are quickly dissected, weighed and frozen in liquid nitrogen, then stored at −80° C. The various deposits of fat tissues (subcutaneous, peri-renal, inguinal and mesenteric) are removed and weighed to calculate the adiposity index.
# [2] = system: C57B16J mice submitted to diet rich in cholesterol; assay: Non-fasting glycemia after 12 weeks; format: in vivo, C57bl6J male mice; settings: after 12 weeks of treatment
# Protocol: as §1
# as §2, with “phytosterols. […]” for “phytosterols.”
# Euthanasia is performed after 3 months of treatment (12 weeks). A blood test is performed, and the following parameters are measured on an automated Konelab (Thermo Fisher, France): total cholesterol (Thermo Fisher, 981,813), triglycerides (Thermo Fisher, 981,786), glucose (Thermo Fisher, 981,780), ALAT (Thermo Fisher, 981,769), ALP (Thermo Fisher, 981,771), ASAT (Thermo Fisher, 981,771).
# [3] = system: C57B16J mice submitted to diet rich in cholesterol; assay: Non-fasting insulinemia after 12 weeks; format: in vivo, C57bl6J male mice; settings: after 12 weeks of treatment
# Protocol: as §1, §2
# as §3, with “Lipistase. […]” for “Lipistase.”
# [4] = system: C57B16J mice submitted to diet rich in cholesterol; assay: Index of adiponectin secretion by adipose tissue; format: in vivo, C57bl6J male mice; settings: adiponectin concentration (μg/ml)/mass of adipose tissue (g)
# Protocol: as §1, §2
# as §3, with “Lipistase. […]” for “Lipistase.”
# [5] = system: C57B16J mice submitted to diet rich in cholesterol; assay: Distribution of cholesterol in lipoproteins by FPLC; format: in vivo, C57bl6J male mice; settings: VLDL fraction
# Protocol: as §1, §2
# All products (reference, study products and combination of products) are administered in the diet enriched in cholesterol, and administration to animals lasts three months. […]
# The determination of lipoprotein profiles is carried out by FPLC (Synelvia, France) after two and three months of treatment and the amounts of cholesterol and triglycerides are measured in the different fractions (HDL, LDL and VLDL).
# [6] = Body weight and weight gain of mice on cholesterol-enriched diet, 12 weeks of treatment; format: in vivo, C57bl6J male mice; settings: diet rich in cholesterol
# Protocol: as §1, §2, §3
# The assessment of weight and food intake is carried out once a week. […]
# [7] = intestinal tract; cited from earlier work
structure (smiles),measurement,setting,value
CC(C)c1c(C(=O)Nc2ccccc2)c(-c2ccccc2)c(-c2ccc(F)cc2)n1CC[C@@H](O)C[C@@H](O)CC(=O)O [atorvastatin],"Adiposity index, effect in words (FIG. 5)",[1],reduction of this index
same,"Epididymal fat, percentage change compared to controls HC (FIG. 6)",[1],−46%
same,"Perirenal (deep) fat, percentage change compared to controls HC (FIG. 6)",[1],−48%
same,"Subcutaneous fat, percentage change compared to controls HC (FIG. 6)",[1],−57%
same,"Glycemia / blood sugar, effect in words",[2],at the same level than that of the control animals
same,"Insulin levels, percentage change compared to controls HC (FIG. 14)",[3],−50%
same,"Insulinemia, circulating rate (FIG. 14)",[3],2.79 ± 0.33 ng/mL
same,"Adiponectin secretion index, effect in words (FIG. 9)",[4],significantly elevated
same,"Free cholesterol in VLDL, percentage change compared to controls HC (FIG. 11b)",[5],−35%
same,Body weight compared to control animals (FIG. 1),[6],significantly lower
same,Weight gain (FIG. 2),[6],reduction of weight gain
CC(C)CCC[C@@H](C)[C@H]1CC[C@H]2[C@@H]3CC=C4C[C@@H](O)CC[C@]4(C)[C@H]3CC[C@]12C [cholesterol],Intestinal absorption,[7],50%
CC[C@H](CC[C@@H](C)[C@H]1CC[C@H]2[C@@H]3CC[C@H]4C[C@@H](O)CC[C@]4(C)[C@H]3CC[C@]12C)C(C)C [sitostanol],Intestinal absorption,[7],1%
CC[C@H](CC[C@@H](C)[C@H]1CC[C@H]2[C@@H]3CC=C4C[C@@H](O)CC[C@]4(C)[C@H]3CC[C@]12C)C(C)C [sitosterol],Intestinal absorption,[7],4-7%
